Reference: patent US8952024B2, “Herbicidal pyrimidone derivatives” (E I du Pont de Nemours and Company, priority 2009, dated 2015)

Columns and labels:
Assay type in all cases: in vivo
[1] = tested on: goosegrass (Eleusine indica); experiment: Test B pre-/postemergence plant response; conditions: for Goosegrass plant response rating (0 to 100 scale): 62 g ai/ha, 0 is no effect, 13 to 15 days
Summary of the method: (§1)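 Steps: sow seed in loam–sand soil and spray preemergence, or grow plants in peat-based medium to 1–4 leaves (2–18 cm) and spray postemergence; formulation is non-phytotoxic solvent plus surfactant; hold in greenhouse 13–15 days; score visually vs controls, 0 = no effect, 100 = complete control.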

kochia (Kochia scoparia) = experiment: Test B pre-/postemergence plant response; conditions: for Kochia plant response rating (0 to 100 scale): 62 g ai/ha, 0 is no effect, 13 to 15 days
Summary of the method: as §1

[2] = tested on: pigweed (Amaranthus retroflexus); experiment: Test B pre-/postemergence plant response; conditions: for Pigweed plant response rating (0 to 100 scale): 62 g ai/ha, 0 is no effect, 13 to 15 days
Summary of the method: as §1

[3] = tested on: johnsongrass (Sorghum halepense); experiment: Test B pre-/postemergence plant response; conditions: for Johnsongrass plant response rating (0 to 100 scale): 62 g ai/ha, 0 is no effect, 13 to 15 days
Summary of the method: as §1

wild oat (Avena fatua) = experiment: Test B pre-/postemergence plant response; conditions: for Oat, Wild plant response rating (0 to 100 scale): 62 g ai/ha, 0 is no effect, 13 to 15 days
Summary of the method: as §1

[4] = tested on: velvetleaf (Abutilon theophrasti); experiment: Test B pre-/postemergence plant response; conditions: for Velvetleaf plant response rating (0 to 100 scale): 62 g ai/ha, postemergence, 0 is no effect, 100 is complete control, 13 to 15 days; for Plant response rating, Velvetleaf: Postemergence, scale 0 to 100 (0 no effect, 100 complete control)
Summary of the method: as §1

[5] = tested on: cocklebur (Xanthium strumarium); experiment: Test B pre-/postemergence plant response; conditions: for Cocklebur plant response rating (0 to 100 scale): 62 g ai/ha, 0 is no effect, 13 to 15 days
Summary of the method: as §1

[6] = tested on: wheat (Triticum aestivum); experiment: Test B pre-/postemergence plant response; conditions: for Wheat plant response rating (0 to 100 scale): 62 g ai/ha, postemergence, 0 is no effect, 100 is complete control, 13 to 15 days; for Plant response rating, Wheat: Postemergence, 125 g ai/ha, scale 0 to 100 (0 no effect, 100 complete control)
Summary of the method: as §1

[7] = tested on: ragweed (common ragweed, Ambrosia elatior); experiment: Test B pre-/postemergence plant response; conditions: for Ragweed plant response rating (0 to 100 scale): 62 g ai/ha, postemergence, 0 is no effect, 100 is complete control, 13 to 15 days; for Plant response rating, Ragweed: Postemergence, scale 0 to 100 (0 no effect, 100 complete control)
Summary of the method: as §1

soybean (Glycine max) = experiment: Test B pre-/postemergence plant response; conditions: for Soybean plant response rating (0 to 100 scale): 62 g ai/ha, postemergence, 0 is no effect, 100 is complete control, 13 to 15 days; for Plant response rating, Soybean: Postemergence, scale 0 to 100 (0 no effect, 100 complete control)
Summary of the method: as §1

[8] = tested on: canarygrass (Phalaris minor); experiment: Test B postemergence plant response; conditions: for Canarygrass plant response rating (0 to 100 scale): 62 g ai/ha, 0 is no effect, 13 to 15 days
Summary of the method: (§2)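 Plants grown in peat/vermiculite medium were sprayed postemergence at 2–18 cm height (1- to 4-leaf stage). After 13–15 days in the greenhouse, response was rated visually against untreated controls on a 0–100 scale (0 no effect, 100 complete control).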

[9] = tested on: chickweed (Stellaria media); experiment: Test B postemergence plant response; conditions: for Chickweed plant response rating (0 to 100 scale): 62 g ai/ha, 0 is no effect, 13 to 15 days
Summary of the method: as §2

[10] = tested on: windgrass (Apera spica-venti); experiment: Test B postemergence plant response; conditions: for Windgrass plant response rating (0 to 100 scale): 62 g ai/ha, postemergence, 0 is no effect, 100 is complete control, 13 to 15 days; for Plant response rating, Windgrass: Postemergence, 125 g ai/ha, scale 0 to 100 (0 no effect, 100 complete control)
Summary of the method: as §2

[11] = 31 g ai/ha, postemergence, scale 0 to 100, 0 is no effect, 100 is complete control
[12] = postemergence, 100 is complete control
[13] = Postemergence, 125 g ai/ha, scale 0 to 100 (0 no effect, 100 complete control)
[14] = Postemergence, 250 g ai/ha, scale 0 to 100 (0 no effect, 100 complete control)

COCC(C)n1c(-c2ccccc2)ncc(C(=O)C2=C(O)CCCC2=O)c1=O (stereo not drawn) [Compound 107]
Plant response rating, Goosegrass [1, 11]: 75 | Goosegrass plant response rating (0 to 100 scale) [1, 12]: 75 | Plant response rating, Goosegrass [1, 13]: 75 | Plant response rating, Goosegrass [1, 14]: 85 | Plant response rating, Kochia (kochia (Kochia scoparia); [11]): 98 | Kochia plant response rating (0 to 100 scale) (kochia (Kochia scoparia); [12]): 98 | Plant response rating, Kochia (kochia (Kochia scoparia); [13]): 100 | Plant response rating, Kochia (kochia (Kochia scoparia); [14]): 100 | Plant response rating, Pigweed [2, 11]: 95 | Pigweed plant response rating (0 to 100 scale) [2, 12]: 100 | Plant response rating, Pigweed [2, 13]: 100 | Plant response rating, Pigweed [2, 14]: 100 | Plant response rating, Johnsongrass [3, 11]: 60 | Johnsongrass plant response rating (0 to 100 scale) [3, 12]: 70 | Plant response rating, Johnsongrass [3, 13]: 70 | Plant response rating, Johnsongrass [3, 14]: 90 | Plant response rating, Oat, Wild (wild oat (Avena fatua); [11]): 0 | Oat, Wild plant response rating (0 to 100 scale) (wild oat (Avena fatua); [12]): 5 | Plant response rating, Oat, Wild (wild oat (Avena fatua); [13]): 20 | Plant response rating, Oat, Wild (wild oat (Avena fatua); [14]): 40 | Velvetleaf plant response rating (0 to 100 scale) [4]: 100 | Plant response rating, Velvetleaf ([4]; 125 g ai/ha): 100 | Plant response rating, Velvetleaf ([4]; 250 g ai/ha): 100 | Plant response rating, Cocklebur [5, 11]: 98 | Cocklebur plant response rating (0 to 100 scale) [5, 12]: 100 | Plant response rating, Cocklebur [5, 13]: 100 | Plant response rating, Cocklebur [5, 14]: 100 | Wheat plant response rating (0 to 100 scale) [6]: 5 | Plant response rating, Wheat [6]: 5 | Ragweed plant response rating (0 to 100 scale) [7]: 85 | Plant response rating, Ragweed ([7]; 125 g ai/ha): 95 | Plant response rating, Ragweed ([7]; 250 g ai/ha): 98 | Soybean plant response rating (0 to 100 scale) (soybean (Glycine max)): 98 | Plant response rating, Soybean (soybean (Glycine max); 125 g ai/ha): 100 | Plant response rating, Soybean (soybean (Glycine max); 250 g ai/ha): 100 | Plant response rating, Canarygrass [8, 11]: 5 | Canarygrass plant response rating (0 to 100 scale) [8, 12]: 15 | Plant response rating, Canarygrass [8, 13]: 60 | Plant response rating, Canarygrass [8, 14]: 80 | Plant response rating, Chickweed [9, 11]: 98 | Chickweed plant response rating (0 to 100 scale) [9, 12]: 100 | Plant response rating, Chickweed [9, 13]: 100 | Plant response rating, Chickweed [9, 14]: 100 | Windgrass plant response rating (0 to 100 scale) [10]: 40 | Plant response rating, Windgrass [10]: 80

COCCn1c(-c2cccc(C)c2)ncc(C(=O)C2=C(O)CCCC2=O)c1=O [Compound 117]
Plant response rating, Goosegrass [1, 11]: 45 | Goosegrass plant response rating (0 to 100 scale) [1, 12]: 75 | Plant response rating, Goosegrass [1, 13]: 75 | Plant response rating, Goosegrass [1, 14]: 85 | Plant response rating, Kochia (kochia (Kochia scoparia); [11]): 45 | Kochia plant response rating (0 to 100 scale) (kochia (Kochia scoparia); [12]): 50 | Plant response rating, Kochia (kochia (Kochia scoparia); [14]): 85 | Plant response rating, Pigweed [2, 11]: 95 | Pigweed plant response rating (0 to 100 scale) [2, 12]: 98 | Plant response rating, Pigweed [2, 14]: 100 | Plant response rating, Johnsongrass [3, 11]: 5 | Johnsongrass plant response rating (0 to 100 scale) [3, 12]: 20 | Plant response rating, Johnsongrass [3, 14]: 25 | Plant response rating, Oat, Wild (wild oat (Avena fatua); [11]): 5 | Oat, Wild plant response rating (0 to 100 scale) (wild oat (Avena fatua); [12]): 10 | Plant response rating, Oat, Wild (wild oat (Avena fatua); [13]): 30 | Plant response rating, Oat, Wild (wild oat (Avena fatua); [14]): 35 | Velvetleaf plant response rating (0 to 100 scale) [4]: 85 | Plant response rating, Velvetleaf ([4]; 125 g ai/ha): 95 | Plant response rating, Velvetleaf ([4]; 250 g ai/ha): 100 | Plant response rating, Cocklebur [5, 11]: 75 | Cocklebur plant response rating (0 to 100 scale) [5, 12]: 75 | Plant response rating, Cocklebur [5, 13]: 98 | Plant response rating, Cocklebur [5, 14]: 100 | Wheat plant response rating (0 to 100 scale) [6]: 5 | Plant response rating, Wheat [6]: 20 | Ragweed plant response rating (0 to 100 scale) [7]: 75 | Plant response rating, Ragweed ([7]; 125 g ai/ha): 90 | Plant response rating, Ragweed ([7]; 250 g ai/ha): 98 | Soybean plant response rating (0 to 100 scale) (soybean (Glycine max)): 80 | Plant response rating, Soybean (soybean (Glycine max); 125 g ai/ha): 95 | Plant response rating, Soybean (soybean (Glycine max); 250 g ai/ha): 95 | Plant response rating, Canarygrass [8, 11]: 0 | Canarygrass plant response rating (0 to 100 scale) [8, 12]: 0 | Plant response rating, Canarygrass [8, 13]: 5 | Plant response rating, Canarygrass [8, 14]: 5 | Plant response rating, Chickweed [9, 11]: 85 | Chickweed plant response rating (0 to 100 scale) [9, 12]: 95 | Plant response rating, Chickweed [9, 13]: 98 | Plant response rating, Chickweed [9, 14]: 100 | Windgrass plant response rating (0 to 100 scale) [10]: 45 | Plant response rating, Windgrass [10]: 65

COCCCn1c(-c2cccc(C)c2)ncc(C(=O)C2=C(O)CCCC2=O)c1=O [Compound 118, 5-[(2-hydroxy-6-oxo-1-cyclohexane-1-yl)carbonyl]-3-(3-methoxypropyl)-2-(3-methylphenyl)-4(3H)-pyrimidinone]
Plant response rating, Goosegrass [1, 11]: 55 | Goosegrass plant response rating (0 to 100 scale) [1, 12]: 65 | Plant response rating, Goosegrass [1, 13]: 80 | Plant response rating, Goosegrass [1, 14]: 90 | Plant response rating, Kochia (kochia (Kochia scoparia); [11]): 45 | Kochia plant response rating (0 to 100 scale) (kochia (Kochia scoparia); [12]): 65 | Plant response rating, Kochia (kochia (Kochia scoparia); [13]): 70 | Plant response rating, Kochia (kochia (Kochia scoparia); [14]): 98 | Plant response rating, Pigweed [2, 11]: 85 | Pigweed plant response rating (0 to 100 scale) [2, 12]: 100 | Plant response rating, Pigweed [2, 13]: 100 | Plant response rating, Pigweed [2, 14]: 100 | Plant response rating, Johnsongrass [3, 11]: 10 | Johnsongrass plant response rating (0 to 100 scale) [3, 12]: 10 | Plant response rating, Johnsongrass [3, 13]: 20 | Plant response rating, Johnsongrass [3, 14]: 35 | Plant response rating, Oat, Wild (wild oat (Avena fatua); [11]): 5 | Oat, Wild plant response rating (0 to 100 scale) (wild oat (Avena fatua); [12]): 5 | Plant response rating, Oat, Wild (wild oat (Avena fatua); [13]): 10 | Plant response rating, Oat, Wild (wild oat (Avena fatua); [14]): 40 | Velvetleaf plant response rating (0 to 100 scale) [4]: 75 | Plant response rating, Velvetleaf ([4]; 125 g ai/ha): 98 | Plant response rating, Velvetleaf ([4]; 250 g ai/ha): 100 | Plant response rating, Cocklebur [5, 11]: 40 | Cocklebur plant response rating (0 to 100 scale) [5, 12]: 40 | Plant response rating, Cocklebur [5, 13]: 85 | Plant response rating, Cocklebur [5, 14]: 98 | Wheat plant response rating (0 to 100 scale) [6]: 5 | Plant response rating, Wheat [6]: 5 | Ragweed plant response rating (0 to 100 scale) [7]: 85 | Plant response rating, Ragweed ([7]; 125 g ai/ha): 95 | Plant response rating, Ragweed ([7]; 250 g ai/ha): 98 | Soybean plant response rating (0 to 100 scale) (soybean (Glycine max)): 90 | Plant response rating, Soybean (soybean (Glycine max); 125 g ai/ha): 95 | Plant response rating, Soybean (soybean (Glycine max); 250 g ai/ha): 100 | Plant response rating, Canarygrass [8, 11]: 0 | Canarygrass plant response rating (0 to 100 scale) [8, 12]: 0 | Plant response rating, Canarygrass [8, 13]: 10 | Plant response rating, Canarygrass [8, 14]: 15 | Plant response rating, Chickweed [9, 11]: 90 | Chickweed plant response rating (0 to 100 scale) [9, 12]: 95 | Plant response rating, Chickweed [9, 13]: 95 | Plant response rating, Chickweed [9, 14]: 100 | Windgrass plant response rating (0 to 100 scale) [10]: 60 | Plant response rating, Windgrass [10]: 70
